Data reported in patent publication US20160158375A1, “DIPEPTIDE LINKED MEDICINAL AGENTS” (Indiana University Research and Technology Corporation, priority 2010, published 2016).
Like-named read-outs stand apart in the source and are kept apart here. Square brackets hold non-standard residues; d marks the D form. Peptide text beside a SMILES is read from it. Sar = CNCC(=O)O

Tests used:
[1] = Rate of model dipeptide cleavage in PBS (HPLC / LC-MS); conditions: for Relative peak area (%), HPLC peak a / Relative peak area (%), HPLC peak b: PBS, 37° C.; for Relative peak area (%), HPLC peak a: peak a molecular weight 702; for Relative peak area (%), HPLC peak b: peak b molecular weight 902
Description: The solution was incubated at 37° C. […] The dipeptide cleavage was quenched by lowering the pH with an equal volume of 0.1% TFA. The rate of cleavage was qualitatively monitored by LC-MS and quantitatively studied by HPLC. The retention time and relative peak area for the prodrug and the parent model peptide were quantified using Peak Simple Chromatography software.
The flow rate was 1 ml/min.
The concentrations of the prodrugs and the model parent peptide were determined by their respective peak areas, ‘a’ and ‘b’ for each of the different collection times (Table 1). […] The slope of this plot provides the rate constant 1′.

[2] = plasma; for Relative peak area (%), HPLC peak a: peak a molecular weight 702; for Relative peak area (%), HPLC peak b: peak b molecular weight 902

C[C@@H](O)[C@H](NC(=O)CNC(=O)[C@H](CCCNC(=N)N)NC(=O)[C@H](CO)NC(=O)[C@H](Cc1c[nH]cn1)NC(=O)CN(C)C(=O)C(C)(C)N)C(=O)N[C@@H](Cc1ccccc1)C(N)=O [Compound 24]
half-life at 1 mg/ml ([1]; buffer): 9 min

C[C@@H](O)[C@H](NC(=O)CNC(=O)[C@H](CCCNC(=N)N)NC(=O)[C@H](CO)NC(=O)[C@H](Cc1c[nH]cn1)NC(=O)CN(C)C(=O)[C@@H](N)CCCCN)C(=O)N[C@@H](Cc1ccccc1)C(N)=O [peptide A, Lys-Sar-HSRGTF-NH2] (H-K[Sar]HSRGTF-NH2; N-terminus assumed)
Relative peak area (%), HPLC peak a ([1]; 5 h): 26.5%
Relative peak area (%), HPLC peak b ([1]; 5 h): 73.5%
Relative peak area (%), HPLC peak a ([1]; 8 h): 28.9%
Relative peak area (%), HPLC peak b ([1]; 8 h): 71.1%
Relative peak area (%), HPLC peak a ([1]; 24 h): 28.8%
Relative peak area (%), HPLC peak b ([1]; 24 h): 71.2%
Relative peak area (%), HPLC peak a ([1]; 31 h): 77.7%
Relative peak area (%), HPLC peak b ([1]; 31 h): 22.3%
Relative peak area (%), HPLC peak a ([1]; 47 h): 90.0%
Relative peak area (%), HPLC peak b ([1]; 47 h): 10.0%

C[C@H](O)[C@@H](NC(=O)CNC(=O)[C@@H](CCCNC(=N)N)NC(=O)[C@H](NC(=O)[C@@H](Cc1c[nH]cn1)NC(=O)CN(C)C(=O)[C@@H](N)CCCCN)[C@H](C)O)C(=O)N[C@H](Cc1ccccc1)C(N)=O [peptide B, Lys-Sar-dHdTdRGdTdF-NH2] (H-K[Sar][dH][dT][dR]G[dT][dF]-NH2)
Relative peak area (%), HPLC peak a ([2]; 5 h): 17.0%
Relative peak area (%), HPLC peak b ([2]; 5 h): 83.0%
Relative peak area (%), HPLC peak a ([2]; 11 h): 29.2%
Relative peak area (%), HPLC peak b ([2]; 11 h): 70.8%
Relative peak area (%), HPLC peak a ([2]; 24 h): 60.2%
Relative peak area (%), HPLC peak b ([2]; 24 h): 39.8%
Relative peak area (%), HPLC peak a ([2]; 32 h): 54.0%
Relative peak area (%), HPLC peak b ([2]; 32 h): 46.0%
Relative peak area (%), HPLC peak a ([2]; 48 h): 27.6%
Relative peak area (%), HPLC peak b ([2]; 48 h): 72.4%
